Experimental data as given in patent US20050042714A1, “Glycoconjugates of sialic acid derivates, methods for their production and use thereof” (priority 2001, published 2005).

How the values were obtained:
[1] = test system: CD75s in BJA-B K20 cells; assay: de novo expression of sialoglycan CD75s by indirect immunofluorescence (antibody HH2); type: cell-based, human; details: serum-free, 5 mM, 0-6 h
Method: Kinetics of 9-iodo-NeuAc-induced expression of sialoglycan CD75s in BJA-B K20 cells in comparison with its precursor 6-iodo-ManNAc. Cells were cultivated under serum-free conditions for at least 7 d and then either ManNAc, 6-iodo-ManNAc, 9-iodo-NeuAc or NeuAc (each 5 mM) was added. The de novo expression of CD75s was monitored at the indicated time points by indirect immunofluorescence using fixed and permeabilized cells. Representative confocal pictures of two independent experiments are shown.
The superiority of biosynthetic incorporation of sialic acid variants by NeuAc derivatives over derivatized ManNAc precurors was shown by directly comparing 9-iodo-NeuAc and the corresponding 6-iodo-ManNAc. K20 cells cultivated under serum-free conditions were incubated for 0-6 h with either 9-iodo-NeuAc or 6-iodo-ManNAc prior to analysis of CD75s expression. CD75s is an α-2,6 sialylated cell surface antigen of mature B-lymphocytes which is not detectable with the monoclonal antibody HH2 in K20 cells cultured in the absence of serum. […] We conclude that presentation of C9-modified sialic acids on the cell surface is only possible by medium supplementation with sialic acid analogues, but not with ManNAc analogues. […]

[2] = test system: HL60-I cells; assay: uptake of peracetylated/esterified NeuAc: VVA and TML lectin staining by flow cytometry; type: cell-based, human; details: HL60-I cells, 0.03 to 1 mM (NeuAc 1 or 5 mM), 72 h, 0.5% DMSO
Method: Peracetylation of NeuAc only facilitates uptake if the carboxyl group is additionally esterified. Hyposialylated HL60-I cells were cultivated in the presence of indicated synthetic sialic acid analogue (stock solution 200 mM in DMSO) ranging from 0.03 to 1 mM or 0, 1 or 5 mM NeuA for 72 h with DMSO concentrations adjusted to 0.5%. Cells were stained with either directly fluorochrome-coupled lectin VVA, or biotin-coupled lectin (TML) and streptavidin-FITC for analysis by flow cytometry. Values given are relative factors of change of the mean fluorescence intensity of pretreated cells relative to untreated cells. The bars represent arithmetic means±SD (n=3). Molecular structures are given below the diagram.
Sugars are very hydrophilic and it has been shown that increasing the hydrophobicity by peracetylation of hydroxyl groups enables or facilitates uptake of disaccharides (Collins, B. E., Fralich, T. J., Itonori, S., Ichikawa, Y. and Schnaar, R. L. (2000) Glycobiology, 10, 11-20; Sarkar, A. K., Fritz, T. A., Taylor, W. H. and Esko, J. D. (1995) Proc Natl Acad Sci USA, 92, 3323-7; Sarkar, A. K., Rostand, K. S., Jain, R. K., Matta, K. L. and Esko, J. D. (1997) J Biol Chem, 272, 25608-16). For ManNAc derivatives it has been shown that peracetylation reduces required medium concentrations (Collins et al., 2000). The acetyl groups are cleaved-off intracellularly by cellular esterases (Collins et al., 2000; Sarkar et al., 1995; Sarkar et al., 1997) and the derivatives are then processed as known for the non-acetylated sugars. In order to address the question whether peracetylation also facilitates uptake of N-acetylneuraminic acid, HL60-I cells were cultivated in the presence of peracetylated NeuAc at concentrations ranging from 0.03 mM to 1 mM for 3 days. Changes in cell surface sialylation were measured by flow cytometry using Vicia Villosa agglutinin (VVA) and Tritrichomonas mobilensis lectin (TML). […] This represents a reduction in concentration by more than 16-fold and is in a similar range as reported for peracetylated ManNAc and ManNAc (Collins et al., 2000).
(§1) Lyophilized FITC-conjugated lectins Vicia villosa (VVA) was obtained from Sigma, dissolved in H2O (1 mg/ml), aliquoted and stored at −20° C. according to the manufacturer's instructions. FITC-conjugated Limax flavus agglutinin (LFA) was from EY Laboratories (San Manteo, Calif., USA) and biotin-coupled Tritrichomonas mobilensis agglutinin (TLM) from Calbiochem. Lectin staining procedure and fluorescence-activated cell scanning on a Becton Dickinson FACScan cytometer using Cellquest II software were carried out as described (Keppler, O. T., Molden-hauer, G., Oppenländer, M., Schwartz-Albiez, R., Berger, E. G., Funderud, S., and Pawlita, M. (1992) Eur J Immunol 22(11), 2777-81). Briefly, cells (3×10^5) were washed twice in cold PBS and then incubated in 100 μl PBS/0.05% NaN3, containing either fluorochrome-conjugated lectins VVA (50 μg/ml), LFA (20 μg/ml), or biotinylated TLM (20 μg/ml) for 45 min on ice in the dark. For biotinylated TLM a secondary incubation step with steptavidin-FITC (20 μg/ml) (Sigma) for 30 min on ice in the dark is required. After washing with PBS, cells were resuspended in 300 μl PBS and analyzed by flow cytometry.

[3] = test system: B-lymphotropic papovavirus (LPV) in BJA-B K88 cells; assay: LPV infection of analogue-treated normally sialylated cells (VP1 ELISA); type: cell-based, human
Method: Changes in permissivity for the sialic acid-dependent B-lymphotropic papovavirus (LPV) in hyposialylated (K20) and normally sialylated (K88) BJA-B cells after treatment with sialic acid analogues. Cells were treated with analogues or NeuAc for 3d. 50 h post LPV inoculation the LPV infection was quantified (A) by detecting the amount of LPV VP1 in cell lysates relative to the total protein content by ELISA and (B) by indirect immunofluorescence microscopy as percentage of LPV T-antigen-positive BJA-B K20 cells. A, values are given as arithmetic means±SD of three independent experiments. B, representatives of three experiments are shown. DAPI-staining (left) indicates the total amount of cells in the section, on the right LPV T-antigen positive cells are shown with the average percentage given beside. […]
BJA-B subclones were infected with the B-lymphotropic papovavirus (LPV) as described (Keppler, O. T., Herrmann, M., Oppenländer, M., Meschede, W., and Pawlita, M. (1994) J Virol 68(11), 6933-9). […] LPV infection was quantified by indirect immunofluorescence microscopy as percentage of LPV T-antigen positive cells and the amount of LPV VP1 in cell lysates was determined by ELISA relative to the total protein extracted.

[4] = test system: B-lymphotropic papovavirus (LPV) in BJA-B K20 cells; details: NeuAc treatment, stated as known; cited from earlier work
[5] = test system: HL60-I cells; assay: metabolic complementation assay: lectin staining (VVA, LFA, TLM) of analogue-treated cells by flow cytometry; type: cell-based, human; details: 5 mM, 24 h; for effect on VVA binding: decrease = masking of GalNAc by sialic acid
Method: Medium supplementation with some synthetic sialic acid analogues restores cell surface sialylation in hyposialylated HL60-I cells. Cells were cultivated in the presence of indicated synthetic sialic acid analogue (5 mM) for 24 h and stained with either directly fluorochrome-coupled lectins (VVA, LFA) or biotin-coupled lectin (TLM) and streptavidin-FITC and analyzed by flow cytometry. Values are given as “relative factor of change” (RFC) of the “mean fluorescence intensity” (MFI) of sialic acid-treated cells relative to untreated cells. The bars represent arithmetic means±SD (n^34) of one (x) or ≧two experiments.
To test whether cells can incorporate synthetic sialic acid analogues from the culture medium, a metabolic complementation assay was performed on endogenously hyposialylated, UDP-GlcNAc-2-epimerase-deficient HL60-I cells.
Cells were cultivated for 24 h in the presence of one of 16 different synthetic sialic acid analogues, carrying distinct C5 or C9 modifications (FIG. 1), and subsequently, changes in cell surface sialylation were assessed by flow cytometry using three fluorochrome-conjugated sialic acid-sensitive lectins. Vicia villosa agglutinin (VVA) detects GalNAc residues, and its binding sites can be masked by the addition of terminal sialic acid residues.
In sugar supplementation assays, cells seeded at 5×10^5 cells/ml in culture medium buffered with 40 mM HEPES (pH 7.2) were cultivated for 24 h in the presence or absence of 5 mM sialic acids (stocks of 100 mM dissolved in H2O, stored at 4° C.).
as §1

[6] = test system: BJA-B K20 cells; assay: HPLC of membrane-associated sialic acids from analogue-treated cells; type: cell-based, human; details: serum-free, 5 mM, 48 h
Method: Sialic acid analogues are incorporated in cell surface glycoconjugates. HPLC chromatograms of DMB-derivatised sialic acids hydrolysed from glycoproteins of sialic acid analogue-treated BJA-B K20 cells. (A) standards, (B) untreated cells, (C) cells cultivated in 5-N-fluoroacNeu, (D) cells cultivated in 9-iodo-NeuAc. Peaks were identified as follows: NeuGc (internal standard), NeuAc, 5-N-fluoroac-Neu, 9-iodo-NeuAc, Na-pyruvate (internal standard). Internal standards were added to each sample.
To confirm that synthetic sialic acid analogues supplementing the medium were taken up and metabolically incorporated as analogues into surface sialoglyco-conjugates the membrane-associated sialic acid fraction was analyzed by High Performance Liquid Chromatography (HPLC). […]
To confirm that the modifications are still present after incorporation into glycoconjugates sialic acids were cleaved off cell surfaces and analyzed by HPLC. […] Sialic acids derivation was performed according to a method as given below and samples were analyzed on a reversed-phase C18 column as described (Keppler, O. T., Stehling, P., Herrmann, M., Kayser, H., Grunow, D., Reutter, W., and Pawlita, M. (1995) J Biol Chem 270(3), 1308-14).

[7] = stability under physiological conditions; type: physicochemical; details: most likely hydrolysed to NeuAc in the cytoplasm

CC(=O)N[C@@H]1C(O)O[C@H](CI)[C@@H](O)[C@@H]1O (stereo partly drawn) [6-iodo-ManNAc, reference compound]
effect on CD75s expression within 6 h [1]: did not show any effect

CC(=O)N[C@H]1[C@H]([C@H](O)[C@H](O)CO)OC(O)(C(=O)O)C[C@@H]1O (stereo partly drawn) [NeuAc, N-acetyl neuraminic acid, reference compound]
effect on cell surface sialylation (VVA and TML binding) [2]: significant changes in lectin binding | LPV-permissivity [3]: did not change permissivity significantly | cells infected by LPV [4]: about 17% | increase of LFA binding (relative factor of change of mean fluorescence intensity vs untreated cells) [5]: 9.5 fold | increase of TLM binding (relative factor of change of mean fluorescence intensity vs untreated cells) [5]: 4.8 fold | effect on VVA binding [5]: decreased markedly

CC(=O)N[C@H]1[C@H]([C@H](O)[C@H](O)CI)OC(O)(C(=O)O)C[C@@H]1O (stereo partly drawn) [analogue f, 5-N-acetyl-9-deoxy-9-iodo-neuraminic acid]
share of membrane-associated sialic acids consisting of the analogue [6]: 86.1% | time to strong intracellular CD75s signal [1]: ≤ 1 h | effect on LFA binding [5]: increased binding of LFA | effect on TLM binding [5]: increased binding | increase of LFA binding (relative factor of change of mean fluorescence intensity vs untreated cells) [5]: 19.2 fold | increase of TLM binding (relative factor of change of mean fluorescence intensity vs untreated cells) [5]: 6.4 fold | effect on VVA binding [5]: significantly decreased VVA-binding

COC(=O)C1(O)C[C@H](O)[C@@H](NC(C)=O)[C@H]([C@H](O)[C@H](O)CO)O1 (stereo partly drawn) [analogue o, methyl N-acetyl neuraminate]
effect on cell surface sialylation (VVA and TML binding) [2]: did not affect uptake | stability under physiological conditions [7]: unstable under physiological conditions | effect on LFA binding [5]: increased binding of LFA | effect on TLM binding [5]: increased binding | effect on VVA binding [5]: significantly decreased VVA-binding | effect on LFA binding ([5]; listed as NeuAc-Me-Ester): very similar to those of NeuAc | effect on TLM binding ([5]; listed as NeuAc-Me-Ester): very similar to those of NeuAc
